Data published in US7273847B2, “Peptides with antioxidant and antimicrobial properties” (priority 2000, dated 2007).

What was measured:
[1] = test system: E. coli K12; assay: Radial diffusion growth inhibition in agar; type: cell-based; details: for Inhibition of E. coli growth in presence of anti-mouse SP-A / anti-mouse SP-D antibodies / Inhibition of E. coli growth in presence of excess LPS vesicles: radial diffusion; for Inhibition of E. coli growth in presence of excess LPS vesicles: for SP-A>SP-D
Experimental: (§1) A radial diffusion method was therefore used to examine the effect of the collectins and their individual structural domains on the growth of E. coli that were immobilized in agar (FIGS. 8,9). Wells were bored into plates containing agar impregnated with 2×10^6 E. coli/ml or GBS. Proteins to be tested were introduced into the wells and the plates were incubated overnight at 37° C.

[2] = test system: LDL; assay: TBARS assay of copper-induced oxidation of LDL; type: biochemical, human; details: for TBARS LDL Malondialdehyde: mean ± S.E.M., n=3
Experimental: Substrates for lipid oxidation included mixtures of natural and synthetic glycerophospholipids that are found in pulmonary surfactant and human LDL. The surfactant lipid mix, composed of egg phosphatidylcholine, dipalmitoylphosphatidylcholine, cholesterol and 1-oleoyl-2-linoleoyl-sn-glycero-3-phosphocholine (1:1:0.15:0.15, w/w, respectively) (Avanti Polar Lipids) in chloroform, was dried to a film under nitrogen. Following hydration in PBS or 0.15 M NaCl for 30 min, multilamellar vesicles were generated by vigorous vortexing for 5 minutes. LDL were isolated from the plasma of normal blood donors by density gradient ultracentrifugation (density=1.019-1.063 g/ml) as previously described in Qin et al., Am. J. Physiol. 274(5 Pt 2): H1836-1840 (1998), and stored in saline-EDTA. Just prior to use, EDTA was removed by dialysis against PBS, and the concentration of LDL was determined by Lowry assay (in milligrams of LDL-associated protein).
Stock solutions of 10 mM CuSO4 were freshly prepared daily. Reaction mixtures containing 1 mg/mi surfactant lipids or 150 μg/ml LDL were incubated with 10 μM CuSO4 for 24 hours or 4 hours, respectively, in the presence of putative oxidation inhibitors or controls at 37° C. in a shaking water bath in accordance with the method of Gelvan et al., Biochim. Biophys. Acta 1035(3):353-360 (1990). Control reactions which included LDL only, 10 μM CuSO4 or protein controls of bovine serum albumin (BSA), rat IgG, recombinant MBP, rat serum and human complement C1q were performed concurrently with experimental samples. Thiobarbituric acid-reactive substances (TBARS) were measured using a method adapted from Gelvan et al., Biochim. Biophys. Acta 1035(3):353-360 (1990). Samples and 0-10 μM […] standards were developed by addition of a solution composed of 0.375% thiobarbituric acid, 15% trichloroacetic acid, and 0.25N HCl at a volume ratio of 1:2, sample: developer. Following incubation at 95° C. for 30 minutes and centrifugation at 14,000 rpm for 15 minutes, an aliquot was read at 540 nm in a spectrophotometer. For continuous assessment of lipid oxidation, the accumulation of conjugated dienes during LDL oxidation was monitored spectrophotometrically in accordance with the method of Esterbauer et al., Free Rad. Med. Biol. 13, 341-390 (1992). Mixtures of 150 μg/ml LDL, 10 μM copper, and various amounts of surfactant proteins or control proteins were placed in quartz cuvettes and allowed to oxidize at room temperature over 335 minutes. Conjugated diene formation was assessed by measuring absorbance at 234 nm in a spectrophotometer.
The data are set forth graphically in FIG. 3. Various concentrations of recombinant wild type SP-A (circle), mutant SP-A containing a deletion of the collagen-like domain (square) and mutant SP-A containing only the neck and C-lectin domain (CLD) (triangle) were incubated with LDL in the presence of 10 μM Cu^2+, and lipid peroxidation was quantified by TBARS assay. Data are means, n=3-4.

[3] = test system: surfactant lipids; assay: TBARS assay of copper-induced oxidation of surfactant lipids; type: biochemical
[4] = test system: GBS; assay: Radial diffusion growth inhibition in agar; type: cell-based; details: 0.5 and 5.0 μg added
Experimental: as §1

[5] = test system: LDL; assay: Western (immunoblot) analysis of protein carbonyl derivatives formed during copper mediated LDL oxidation; type: biochemical, human; details: SP-A 10 μg/ml, SP-D 1 μg/ml; alkylated SP-A 50 μg/ml, alkylated SP-D 10 μg/ml
Experimental: Proteins were analyzed for carbonyl modification of amino acid side groups that occur during lipid oxidation, as described in Levine et al., Methods Enzymol. 186, 464-478 (1990). Briefly, proteins that were included in reactions mixtures with LDL and 10 μM copper were derivatized to 2,4-dinitrophenylhydrazones (DNP-hydrazones) by reaction with 2,4-dinitrophenylhydrazine (DNPH), size fractionated by 8-16% SDS-PAGE under reducing conditions and electrophorectically transferred to nitrocellulose membranes (Oxyblot, Intergen). The membrane was sequentially incubated with a rabbit anti-DNP IgG and a horseradish peroxidase-conjugated goat anti-rabbit IgG. Blots were developed by HRP-dependent oxidation of a chemiluminescent substrate, and visualized using autoradiography.
To determine if the surfactant proteins act as sinks for reactive lipid intermediates, covalent modification of SP-A and SP-D during LDL oxidation was assessed using a western analysis technique that detects carbonyl adducts (Levine et al., Methods Enzymol. 186: 464-78 (1990)). As depicted by FIG. 4, oxidative modification of proteins that occurred during copper induced LDL oxidation were determined by Western analysis using an antibody to DNP-derivatized carbonyl moieties. Reaction mixtures contained LDL only, LDL+Cu^2+, LDL+Cu^2++albumin+10 μg/ml SP-A, LDL+Cu^2++albumin+1 μg/ml SP-D, LDL+Cu^2++albumin, LDL+Cu^2++albumin+50 μg/ml iodoacetamide treated SP-A, LDL+Cu^2++albumin+10 μg/ml iodoacetamide treated SP-D, 50 μg/ml albumin+50 μg/ml iodoacetamide treated SP-A, albumin+10 μg/ml iodoacetamide treated SP-D.

[6] = test system: surfactant lipids; details: comparison value; read-out: I.C.50 of antioxidant serum lipoprotein; cited from earlier work

With “recombinant mouse SP-A: recombinant mouse SP-A” the “Inhibition of E. coli growth in presence of anti-mouse SP-A / anti-mouse SP-D antibodies” value [1] was “blocked” and the “Inhibition of E. coli growth in presence of excess LPS vesicles” value [1] was “blocked”.

With “Clq: human complement C1q, the first component of complement [reference compound]” the “Effect on LDL lipid oxidation” value ([2]; 50 μg/ml) was “no effect on LDL lipid oxidation”, the “TBARS LDL Malondialdehyde” value ([2]; LDL + Cu2+ + 50 μg/ml protein) was 4.16 ± 0.05 µM and the “Protection from oxidation of surfactant lipids” value ([3]; 50 μg/ml control protein) was “no protection from oxidation”. For the same molecule, the “TBARS Surfactant lipids Malondialdehyde” value ([3]; Lipid + Cu2+ + 50 μg/ml protein, mean ± S.E.M., n=3) was 1.15 ± 0.07 µM.

In the case of “lysozyme: positive control protein lysozyme [reference compound]”, the “Clearing in E. coli plates” value ([1]; 0.5 and 5.0 μg added) is reported as “dose-dependent clearing” and the “Clearing in GBS plates” value [4] is reported as “dose-dependent clearing”.

B1: recombinant mouse SP-D: recombinant mouse SP-D (protein)
chain: AEMKSLSQRSVPNTCTLVMCSPTENGLPGRDGRDGREGPRGEKGDPGLPGPMGLSGLQGPTGPVGPKGENGSAGEPGPKGERGLSGPPGLPGIPGPAGKEGPSGKQGNIGPQGKPGPKGEAGPKGEVGAPGMQGSTGAKGSTGPKGERGAPGVQGAPGNAGAAGPAGPAGPQGAPGSRGPPGLKGDRGVPGDRGIKGESGLPDSAALRQQMEALKGKLQRLEVAFSHYQKAALFPDGRSVGDKIFRTADSEKPFEDAQEMCKQAGGQLASPRSATENAAIQQLITAHNKAAFLSMTDVGTEGKFTYPTGEPLVYSNWAPGEPNNNGGAENCVEIFTNGQWNDKACGEQRLVICEF
With B1 the “Inhibition of E. coli growth in presence of anti-mouse SP-A / anti-mouse SP-D antibodies” value [1] was “blocked” and the “Inhibition of E. coli growth in presence of excess LPS vesicles” value [1] was “blocked”.

B2: alkylated SP-D: rat SP-D alkylated by incubation with 0.5 M iodoacetamide (protein, UniProt P35248 20-374, looked up)
Pulmonary …: AEMKTLSQRSITNTCTLVLCSPTENGLPGRDGRDGREGPRGEKGDPGLPGPMGLSGLPGPRGPVGPKGENGSAGEPGPKGERGLVGPPGSPGISGPAGKEGPSGKQGNIGPQGKPGPKGEAGPKGEVGAPGMQGSAGAKGPAGPKGERGAPGEQGAPGNAGAAGPAGPAGPQGAPGSRGPPGLKGDRGAPGDRGIKGESGLPDSAALRQQMEALNGKLQRLEAAFSRYKKAALFPDGQSVGDKIFRAANSEEPFEDAKEMCRQAGGQLASPRSATENAAVQQLVTAHSKAAFLSMTDVGTEGKFTYPTGEALVYSNWAPGEPNNNGGAENCVEIFTNGQWNDKACGEQRLVICEF
modifications: alkylated with iodoacetamide
notes: rat SP-D alkylated by incubation with 0.5 M iodoacetamide
In the case of B2, the “TBARS LDL Malondialdehyde” value ([2]; LDL + Cu2+ + 10 μg/ml protein) is reported as 3.92 ± 0.14 µM and the “LDL oxidation in carbonyl Western analysis” value [5] is reported as “neither alkylated SP-A at 50 μg/ml or alkylated SP-D at 10 μg/ml inhibited lipid oxidation”.

B3: ApoAIV: antioxidant serum lipoprotein ApoAIV (protein, UniProt P06727 21-396, looked up)
Apolipoprotein A-IV: EVSADQVATVMWDYFSQLSNNAKEAVEHLQKSELTQQLNALFQDKLGEVNTYAGDLQKKLVPFATELHERLAKDSEKLKEEIGKELEELRARLLPHANEVSQKIGDNLRELQQRLEPYADQLRTQVSTQAEQLRRQLTPYAQRMERVLRENADSLQASLRPHADELKAKIDQNVEELKGRLTPYADEFKVKIDQTVEELRRSLAPYAQDTQEKLNHQLEGLTFQMKKNAEELKARISASAEELRQRLAPLAEDVRGNLRGNTEGLQKSLAELGGHLDQQVEEFRRRVEPYGENFNKALVQQMEQLRQKLGPHAGDVEGHLSFLEKDLRDKVNSFFSTFKEKESQDKTLSLPELEQQQEQQQEQQQEQVQMLAPLES
In the case of B3, the IC50 [6] is given as 50 nM.
